# Measurements taken from US11214594B2, “Antimicrobial peptide having synergistic antibacterial effect with antibiotics on multidrug resistant bacteria, and use thereof” (priority 2016, dated 2022).
# Where a SMILES comes first, the peptide text is derived from it.
# Assays:
# A. baumannii = assay: MIC of antibiotic during combined treatment with antimicrobial peptide; format: cell-based, Acinetobacter baumannii; details: A. baumannii
# Procedure, shortened: (§1)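 Using MH broth, we determined combination MICs by titrating the antibiotic into wells and then repeating under the reverse dilution scheme.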
# P. aeruginosa = assay: microbe, parasite or virus in culture; format: cell-based, Pseudomonas aeruginosa
# Procedure, shortened: (§2)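 Each strain is brought to 2×10^6 CFU in nutrient-sufficient Mueller-Hinton medium and dispensed into wells. Peptide solutions, stepwise diluted 2:1 in the same medium, are then added. The minimal concentration preventing growth gives the MIC.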
# MDREC 1229 = assay: microbe, parasite or virus in culture; format: cell-based, Escherichia coli
# Procedure, shortened: as §2
# E. coli [1] = assay: microbe, parasite or virus in culture; format: cell-based, Escherichia coli; details: 16 h
# Procedure, shortened: as §2
# E. coli [2] = assay: MIC of antibiotic during combined treatment with antimicrobial peptide; format: cell-based, Escherichia coli; details: for Antibiotic MIC, Erythromycin / Antibiotic MIC, Linezolid / Antibiotic MIC, Vancomycin: E. coli
# Procedure, shortened: as §1
# B. subtilis = assay: microbe, parasite or virus in culture; format: cell-based, Bacillus subtilis
# Procedure, shortened: as §2
# S. epidermidis = assay: microbe, parasite or virus in culture; format: cell-based, Staphylococcus epidermidis
# Procedure, shortened: as §2
# MDRST 8009 = format: cell-based, Salmonella typhimurium; details: agent alone
# Procedure, shortened: as §2
# [3] = combined with peptide at 4 μg/ml
# [4] = combined with peptide at 6 μg/ml
# [5] = combined with peptide at 8 μg/ml
# [6] = combined with peptide at 16 μg/ml
# [7] = combined with peptide at 32 μg/ml
# [8] = combined with peptide at 64 μg/ml
smiles,measurement,setting,value
"CC[C@H](C)[C@H](NC(=O)[C@H](CCCCN)NC(=O)[C@H](Cc1c[nH]c2ccccc12)NC(=O)[C@@H](N)CCCNC(=N)N)C(=O)N[C@@H](Cc1ccccc1)C(=O)N[C@@H](CCCCN)C(=O)N[C@@H](CCCCN)C(=O)N[C@H](C(=O)N1CCC[C@H]1C(=O)N[C@@H](CCCCN)C(=O)N[C@@H](Cc1ccccc1)C(=O)N[C@@H](CC(C)C)C(=O)N[C@@H](Cc1c[nH]cn1)C(=O)N[C@@H](CCC(=O)O)C(=O)N[C@@H](C)C(=O)N[C@@H](CCCCN)C(=O)N[C@@H](CCCCN)C(=O)N[C@@H](Cc1c[nH]c2ccccc12)C(N)=O)[C@@H](C)CC [PapMA-14, RWK IFK KIP KFL HEA KKW-NH2] (H-RWKIFKKIPKFLHEAKKW-NH2; N-terminus assumed)","Antibiotic MIC, Vancomycin",A. baumannii; combined with peptide at 2 μg/ml,64 µg/mL
same,"Antibiotic MIC, Erythromycin",A. baumannii; [3],2 µg/mL
same,"Antibiotic MIC, Linezolid",A. baumannii; [3],8 µg/mL
same,"Antibiotic MIC, Vancomycin",A. baumannii; [3],8 µg/mL
same,"Antibiotic MIC, Erythromycin",A. baumannii; [4],0.5 µg/mL
same,"Antibiotic MIC, Linezolid",A. baumannii; [4],1 µg/mL
same,"Antibiotic MIC, Vancomycin",A. baumannii; [4],2 µg/mL
same,"Antibiotic MIC, Erythromycin",A. baumannii; [5],0.25 µg/mL
same,"Antibiotic MIC, Linezolid",A. baumannii; [5],0.5 µg/mL
same,"Antibiotic MIC, Vancomycin",A. baumannii; [5],1 µg/mL
same,"Antibiotic MIC, Erythromycin",A. baumannii; [6],0 µg/mL
same,"Antibiotic MIC, Linezolid",A. baumannii; [6],0 µg/mL
same,"Antibiotic MIC, Vancomycin",A. baumannii; [6],0 µg/mL
same,"Antibiotic MIC, Erythromycin",A. baumannii; [7],0 µg/mL
same,"Antibiotic MIC, Linezolid",A. baumannii; [7],0 µg/mL
same,"Antibiotic MIC, Vancomycin",A. baumannii; [7],0 µg/mL
same,"Antibiotic MIC, Erythromycin",A. baumannii; [8],0 µg/mL
same,"Antibiotic MIC, Linezolid",A. baumannii; [8],0 µg/mL
same,"Antibiotic MIC, Vancomycin",A. baumannii; [8],0 µg/mL
same,Minimal inhibitory concentration MIC,P. aeruginosa,64 µg/mL
same,Minimal inhibitory concentration MIC,MDREC 1229,16 µg/mL
same,"Peptide MIC, peptide alone",MDREC 1229,16 µg/mL
same,Minimal inhibitory concentration MIC,E. coli [1],8 µg/mL
same,Synergistic effect of antibacterial activity with existing antibiotics compared with PapMA-1,E. coli [2]; E. coli and MDREC1229,higher level than the PapMA-1 peptide
same,"Antibiotic MIC, Erythromycin",E. coli [2]; erythromycin combined with peptide at 1 μg/ml,128 µg/mL
same,"Antibiotic MIC, Erythromycin",E. coli [2]; erythromycin combined with peptide at 2 μg/ml,32 µg/mL
same,"Antibiotic MIC, Erythromycin",E. coli [2]; erythromycin combined with peptide at 4 μg/ml,2 µg/mL
same,"Antibiotic MIC, Erythromycin",E. coli [2]; erythromycin combined with peptide at 6 μg/ml,1 µg/mL
same,"Antibiotic MIC, Erythromycin",E. coli [2]; erythromycin combined with peptide at 8 μg/ml,0 µg/mL
same,"Antibiotic MIC, Erythromycin",E. coli [2]; erythromycin combined with peptide at 16 μg/ml,0 µg/mL
same,"Antibiotic MIC, Erythromycin",E. coli [2]; erythromycin combined with peptide at 32 μg/ml,0 µg/mL
same,"Antibiotic MIC, Erythromycin",E. coli [2]; erythromycin combined with peptide at 64 μg/ml,0 µg/mL
same,"Antibiotic MIC, Linezolid",E. coli [2]; linezolid combined with peptide at 1 μg/ml,>128 µg/mL
same,"Antibiotic MIC, Linezolid",E. coli [2]; linezolid combined with peptide at 2 μg/ml,128 µg/mL
same,"Antibiotic MIC, Linezolid",E. coli [2]; linezolid combined with peptide at 4 μg/ml,8 µg/mL
same,"Antibiotic MIC, Linezolid",E. coli [2]; linezolid combined with peptide at 6 μg/ml,2 µg/mL
same,"Antibiotic MIC, Linezolid",E. coli [2]; linezolid combined with peptide at 8 μg/ml,0 µg/mL
same,"Antibiotic MIC, Linezolid",E. coli [2]; linezolid combined with peptide at 16 μg/ml,0 µg/mL
same,"Antibiotic MIC, Linezolid",E. coli [2]; linezolid combined with peptide at 32 μg/ml,0 µg/mL
same,"Antibiotic MIC, Linezolid",E. coli [2]; linezolid combined with peptide at 64 μg/ml,0 µg/mL
same,"Antibiotic MIC, Vancomycin",E. coli [2]; vancomycin combined with peptide at 1 μg/ml,>128 µg/mL
same,"Antibiotic MIC, Vancomycin",E. coli [2]; vancomycin combined with peptide at 2 μg/ml,128 µg/mL
same,"Antibiotic MIC, Vancomycin",E. coli [2]; vancomycin combined with peptide at 4 μg/ml,16 µg/mL
same,"Antibiotic MIC, Vancomycin",E. coli [2]; vancomycin combined with peptide at 6 μg/ml,8 µg/mL
same,"Antibiotic MIC, Vancomycin",E. coli [2]; vancomycin combined with peptide at 8 μg/ml,0 µg/mL
same,"Antibiotic MIC, Vancomycin",E. coli [2]; vancomycin combined with peptide at 16 μg/ml,0 µg/mL
same,"Antibiotic MIC, Vancomycin",E. coli [2]; vancomycin combined with peptide at 32 μg/ml,0 µg/mL
same,"Antibiotic MIC, Vancomycin",E. coli [2]; vancomycin combined with peptide at 64 μg/ml,0 µg/mL
same,Minimal inhibitory concentration MIC,B. subtilis,>128 µg/mL
same,Minimal inhibitory concentration MIC,S. epidermidis,>128 µg/mL
same,Minimal inhibitory concentration MIC,MDRST 8009,32 µg/mL
